Data from patent US20080241177A1 (priority 2003, published 2008).

Columns and labels:
[1] = Delayed type hypersensitivity (DTH) testing; assay type: in vivo, human; settings: for Induration area, DTH testing: 48 hours following intradermal injection of individual peptide, after four vaccinations; for Number of patients with a peptide-specific DTH response: six trial patients who underwent DTH testing
Method: Delayed type hypersensitivity (DTH) testing was carried out 1 month after the final vaccination. […] Induration of […]10 mm^2 at 48 hours after injection was considered positive.

[2] = system: PBMCs; assay: (3H)-thymidine proliferation assay; assay type: cell-based, human; settings: for stimulation index: 10 μg/ml peptide
Method: FIG. 4. Cell-mediated response to peptide 5 in trial subject 016, measured over the course of the vaccination schedule. Patient PBMCs were stimulated with 10 μg/ml peptide 5, incubated in vitro for 6 days, pulsed with ^3H-thymidine for 18 hours and then proliferation was assessed by ^3H-thymidine incorporation.
Peripheral blood mononuclear cells (PBMCs) were plated at a concentration of 1×10^5 cells/well for thymidine proliferation and ELISpot assays and at 1×10^6 cells/well (24 well plates) for the CFSE proliferation assay. ELISpot plates were coated with mouse anti-human IFN-γ antibody (Diaclone, France) and cells for CFSE assay were stained with 5 μM CFSE-FITC (Molecular Probes, Eugene, Oreg.). All PBMCs were in RPMI supplemented with 2 mM L-glutamine, 10 mM HEPES, 100 U/mL penicillin/streptomycin and 10% human AB serum (Australian Red Cross Blood Service).
The recall antigens CMV lysate, (1/2000 dilution; BioWhittaker, Walkersville, Md.) and tetanus toxoid (2.5 Lfu/ml; CSL) were also tested. PBMCs were incubated at 37° C. and 5% CO2 atmosphere for 20 hours (ELISpot) or 6 days (proliferation assays).
In the thymidine proliferation assay, cells were pulsed with 0.5 μCi/well [methyl-^3H]-thymidine (Amersham, Buckinghamshire, UK) and harvested 18 hours later. [^3H]-thymidine incorporation was measured by liquid scintillation counting. A sample was considered to be positive when the stimulation index^22 for each well in the quadruplicate sample exceeded the mean of unstimulated cells by at least three standard deviations.

[3] = system: serum antibodies; assay: Immunization of sheep with the vaccine, anti-peptide ELISA; settings: for Polyclonal sera with reactivity to peptide obtained from immunized sheep: 200 μg peptide mixture in CpG DNA adjuvant, prime and boost
[4] = system: serum antibodies; assay: ELISA for serum antibodies specific for the individual vaccine peptides, human sera; settings: for Number of individuals with a humoral response to the vaccine peptides, Normal controls n = 30 / Percent of individuals with a humoral response to the vaccine peptides, Normal controls n = 30: n = 30, not vaccinated
[5] = system: PBMCs; assay: CFSE proliferation assay; assay type: cell-based, human; settings: subject 016, visit 5
[6] = patient 016, visit 5 (1 month after vaccination 4)
[7] = non-trial cancer controls, n = 54, sera 1:25 dilution
[8] = trial subjects who completed four vaccinations, n = 6, detectable response at any time point considered positive

| Substance | Induration area, DTH testing ([1]; patient 012) | Induration area, DTH testing ([1]; patient 014) | Induration area, DTH testing ([1]; patient 015) | Induration area, DTH testing ([1]; patient 016) | Induration area, DTH testing ([1]; patient 017) | Induration area, DTH testing ([1]; patient 018) | Number of patients with a peptide-specific DTH response [1] | stimulation index [2, 6] | Polyclonal sera with reactivity to peptide obtained from immunized sheep ([3]; two sheep) | Number of individuals with a humoral response to the vaccine peptides, Cancer controls n = 54 [4, 7] | Number of individuals with a humoral response to the vaccine peptides, Normal controls n = 30 [4] | Percent of individuals with a humoral response to the vaccine peptides, Normal controls n = 30 [4] | Number of individuals with a humoral response to the vaccine peptides, Trial subjects n = 6 [4, 8] | further results |
| --- | --- | --- | --- | --- | --- | --- | --- | --- | --- | --- | --- | --- | --- | --- |
| H-LEWMGIINPSGGSANYAPKFKGRLTMS-OH [Peptide 1] | Neg (Neg indicates that induration (if any) was less than 10 mm^2) | Neg (Neg indicates that induration (if any) was less than 10 mm^2) | Neg (Neg indicates that induration (if any) was less than 10 mm^2) | 104 mm^2 | 24 mm^2 | Neg (Neg indicates that induration (if any) was less than 10 mm^2) | two | 10.4 | one animal did not respond | 0 | 3 | 10% | 0 | Response to peptide using the polyclonal sheep sera or rabbit sera ([3]; polyclonal sheep sera (FIG. 2A) or rabbit sera (data not shown)): positive responses; Number of individuals with a humoral response to the vaccine peptides, Trial subjects n = 6 ([4]; trial subjects who completed four vaccinations, n = 6, detectable response at any time point considered positive, listed as peptide 1): No patient demonstrated a response |
| H-LEWVGFIRSKAYGAATAYAASMKGRVTI-OH [Peptide 5] | 165 mm^2 | 16 mm^2 | 24 mm^2 | 269 mm^2 | 373 mm^2 | 94 mm^2 | all six | 22.2 | obtained from both sheep | 3 | 2 | 6.7% | 2 | stimulation index ([2]; patient 016, visit 3 (1 month after vaccination 2)): 8.88; stimulation index ([2]; patient 016, visit 4 (1 month after vaccination 3)): 64.6; First appearance of peptide-specific proliferative response ([2]; patient 016, maximal after three vaccinations): visit 3; Specific proliferative response, % of circulating CD3 and CD4 positive cells [5]: 5.5%; Serum antibody titres, first versus second immunized sheep ([3]; two sheep): equivalent; Percent of individuals with a humoral response to the vaccine peptides, Cancer controls n = 54 [4, 7]: 5.6%; Isotype of peptide-specific serum antibodies ([4]; subject 015): IgG3; Isotype of peptide-specific serum antibodies ([4]; subject 016): IgG3; Percent of individuals with a humoral response to the vaccine peptides, Trial subjects n = 6 [4, 8]: 33.3%; Number of individuals with a humoral response to the vaccine peptides, Trial subjects n = 6 ([4]; trial subjects who completed four vaccinations, n = 6, detectable response at any time point considered positive, listed as peptide 5): two |
